Reference: US20150274690A1, “Strigolactone Compositions And Uses Thereof” (Asilomar Bio, Inc., priority 2013, published 2015)

Experiments:
Seeds of O. cumana = assay: Germination triggering of parasitic weed seeds; format: in vivo; settings: 48 hours post-treatment; AB01 compared with 5-dS
Procedure: Seeds of O. cumana were primed by incubation on glass fiber filters in darkness at room temperature for 3 days. Specified concentrations of AB01 or 5-dS were applied and seeds were monitored at 48 hours post-treatment. Germination was evident by appearance of haustoria. Experiments were performed in triplicate.

Striga hermonthica seeds = settings: 10^-8 M concentrations; cited from earlier work
Seeds of Striga asiatica = assay: Triggering Striga germination (seed germination bioassay); format: in vivo; settings: for bioactivity: induction of Striga germination (in words): radicle emergence from seeds
Procedure: (B) Bioactivity of synthetic SL. Seeds of Striga asiatica were exposed to SL (right) or a mock treatment (left). […] (C) Synthetic biological pathway for the production of SL in yeast, consisting of enzymes of plant and microbial origin. We tested the ability of AB01 to trigger the germination of Striga seeds. Seeds of Striga asiatica were conditioned by incubation in the dark at 30 degrees for 7 days, and dilutions of the AB01 material in water were applied. We observed that concentrations of 1 nanogram per liter and greater were able to trigger germination of approximately 30% of the seeds, which is similar to published efficiencies and activity for plant-derived strigolactone (FIG. 1A-B).

[1] = system: A. thaliana mutants lacking MAXI cytochrome P450 activity; assay: Complementation of Arabidopsis mutant deficient in strigolactone biosynthesis; format: in vivo, Arabidopsis thaliana; settings: 1 uM as an irrigation supplement
Procedure: To further validate the bioactivity of AB01 we tested whether the compound could complement mutants of the model plant Arabidopsis thaliana that are deficient in strigolactone biosynthesis. […] We grew MAXI A. thaliana under standard conditions and added 1 uM AB01 as an irrigation supplement, or a mock treatment. […] Thus, the synthetic AB01 is sufficiently similar to strigolactone to both to trigger Striga germination as well as substitute for the natural compound in a model plant.

cut flowers = assay: Vase life extension of cut flowers; format: in vivo
Procedure: This example determines the effect of the application of a plant propagation material comprising strigolactone or analogs or mimics thereof on the onset of water-stress symptoms in cut flowers during storage, shipping, and/or life in retail or consumer environment. We test a wide range of concentrations to focus our investigations of the effects of the plant propagation material on cut flowers. Indicators of water-limitation stress in flowers are measured (approximately daily). We take cut flowers, apply a plant propagation material in irrigation water, and place in a normal storage environment (e.g., regular day-night cycles, room temperature). The concentration of the strigolactone or analog or mimic thereof in the plant propagation material spanned a concentration range from 1 gram per liter to 1 picogram per liter. We then monitor plants daily for the presence of water stress indicators and shelf life, such as flower and leaf rolling (wilting), turgor of stems, chlorophyll content, and loss of petals.
Various concentrations of the strigolactone mimic were added to the irrigation water of the cut flowers. The vase life for cut flowers treated with water-only was approximately 4 days, whereas the vase life for the cut flowers treated with the plant propagation material was approximately 6-7 days.

Alfalfa [2] = assay: Drought tolerance in alfalfa seedlings; format: in vivo; settings: 1 mg/mL; irrigation stopped; approximately 7 days post-treatment
Procedure: Alfalfa was grown from seeds for 14 days. Seedlings were treated with 1 mg/mL AB01 or mock treated. Irrigation was stopped after treatment and seedlings were monitored for symptoms of water limitation stress.

[3] = system: corn (Dekalb hybrid 68-05); assay: Corn field trial, Hays County, Tex., not irrigated; format: in vivo
Procedure: Field trial was performed from April to July 2014 in Hays County, Tex. Dekalb hybrid 68-05 was planted at a density of 25,000 plants per acre (30″rows with 8″spacing). The field was top-dressed with 80 lbs/ac nitrogen. The field was not irrigated. AB01 treated plots were sprayed with a 2 gram per acre dose at the tasseling (VT) stage. Spraying was accomplished by resuspending solid AB01 in 0.5 mL of acetone, and diluting in water for a spray volume of 1 gallon per 500 square feet. Experiments were performed in triplicate […] The fraction of fertilized ears was measured by visual inspection of the ear silk at the R2-R3 stage. Unfertilized silks that appear yellow/green, while fertilized silks appear reddish brown. Completely unfertilized ears have silks that are completely yellow/green, fertilized ears appear brown, while ears with an incomplete degree of fertilized silks have a mixed population of silks. […] Ears were visually inspected at harvest to monitor kernel set (the number of fully formed kernels in the mature ear). […] Ears volume was measured in the field at the R3 stage to calculate ear volume. The length and circumference of each ear was measure, and volume was calculated by treating the ear as a cylinder. Approximately 100 ears from each plot were measured. […] After harvest, ears were shelled and kernels counted and weighed to quantitate the ‘thousand kernel weight’ (TKW), or average mass of kernels in the trial. AB01 treated plots yielded kernels averaging 30% higher mass than control plots. Ears from control and treated plots were harvested, shelled, and moisture tested to quantitate dry mass. Control plots averaged 120 bushels per acre, while AB01 treated plots averaged 143 bushels per acre, a 19% increase. Grain yield is calculated at 15% moisture, a standard measure of harvest output.

Alfalfa [4] = assay: Salinity tolerance in alfalfa seedlings; format: in vivo; settings: 1 mg/mL; irrigated every 48 hours with 35 g/L NaCl; after 5 days
Procedure: Alfalfa was grown from seeds for 14 days. Seedlings were treated with 1 mg/mL AB01 or mock treated. After treatment, plants were irrigated with 100 mL water containing 35 g/L dissolved salt (NaCl). Irrigation was performed every 48 hours and plants monitored for symptoms of salinity stress.

Tomato seedlings = assay: Salinity tolerance in tomato seedlings; format: in vivo; settings: 10 mg/mL; 29.2 g/L NaCl irrigation 24 hours after treatment; 6 hours after salt irrigation
Procedure: Tomato seedlings were treated with 10 mg/mL AB01 or mock treated. 24 hours after treatment, they were irrigated with 250 mL water containing 29.2 g/L salt (NaCl).

Wheat = assay: Drought tolerance in greenhouse wheat; format: in vivo; settings: 1 mg in 100 mL water; irrigation stopped; 7 days post treatment
Procedure: Wheat was grown in greenhouse conditions from seed for 6 weeks with adequate irrigation. Plants were treated with 1 mg of AB01 resuspended in acetone and diluted in 100 mL water, or mock treated as a control. Irrigation was stopped and plants monitored for symptoms of drought stress.

Striga = assay: Field trial in Striga infested fields, Siaya County, Kenya; format: in vivo; settings: 1 gram per acre sprayed 1 week prior to planting
Procedure: Field trial was performed from August 2013 to January 2014 in Siaya County, Kenya. AB01 treated plots were sprayed with a 1 gram per acre dose 1 week prior to planting. Treatment was accomplished by resuspending solid AB01 in 1 mL of acetone, and diluting in 4000 L of water. 3 replicate treated and untreated plots (100 m2 each) were performed. […] (C) The biomass of Striga from each plot was collected and measured after harvest.

[5] = system: Dekalb 67-86 RR corn seedlings; assay: Acute water stress in corn seedlings (leaf rolling score); format: in vivo; settings: 40 mL of 0.1 mM or 1.0 mM; 6th day without irrigation
Procedure: Corn seedlings were scored as unstressed, moderately water stressed and severely water stressed as measured by visual inspection of leaf rolling, a response of corn to water stress. Dekalb 67-86 RR corn seeds were planted and then irrigated through 7 days after emergence in a greenhouse setting. Seedlings were then treated with 40 mL of water, 0.1 mM AB01 or 1.0 mM AB01 and irrigation ceased. On the 6th day without irrigation, seedlings were scored for water stress. Seedlings with open leaves were scored as unstressed; seedlings with partial leaf rolling were scored as moderately stressed; seedlings with completely rolled leaves were scored as severely stressed.

Question: Which “germination triggering efficiency (appearance of haustoria)” value (Seeds of O. cumana) does the source give for `CC1=C[C@H](O/C=C2/C(=O)O[C@@H]3C4=C(CCCC4(C)C)CC23)OC1=O` (stereo partly shown) [5-dS, 5-deoxystrigol, reference compound] here?
Answer: The value was “Significant differences in germination triggering efficiency”.

Question: Which “activity in germination studies of Striga hermonthica seeds” value (Striga hermonthica seeds) does the source give for `CC1=C[C@H](O/C=C2/C(=O)O[C@@H]3C4=C(C[C@H]23)C(O)CCC4(C)C)OC1=O` (single isomer, unassigned; (+)) [(+)-strigol, (+)-Strigol] here?
Answer: Its value is 93%.

Question: For `CC1=CC(OC=C2C(=O)OC3C4=C(CC23)C(O)CCC4(C)C)OC1=O` (stereo not drawn) [ent-strigol], which “activity in germination studies of Striga hermonthica seeds” value (Striga hermonthica seeds) is on record?
Answer: The value was 22%.

Question: With `CC1=CC(O/C=C2\C(=O)O[C@]3(C)CCC4C(C)(C)CCC[C@]4(C)[C@@H]23)OC1=O` (stereo partly shown) [AB01] as the compound, how does the “fraction of Striga seeds triggered to germinate” value (Seeds of Striga asiatica; at 1 nanogram per liter and greater) read?
Answer: Its value is “approximately 30%”.

Question: And the “concentrations able to trigger germination of Striga seeds” value (Seeds of Striga asiatica; dilutions in water, seeds conditioned in the dark at 30 degrees for 7 days)?
Answer: The value was at least 1 nanogram per liter.

Question: And the “bioactivity: induction of Striga germination (in words)” value (shortened to “bioactivity: induction”) (Seeds of Striga asiatica)?
Answer: Its value is “graded dose-response behavior”.

Question: What about the “bioactivity: induction” value (Seeds of Striga asiatica; listed as Synthetic SL) of the same compound?
Answer: Its value is “potent bioactivity, with nanograms of material inducing germination of Striga seeds”.

Question: What about the “bioactivity: induction” value (Seeds of Striga asiatica; listed as synthetic SL) of the same compound?
Answer: Its value is “displayed bioactivity”.

Question: And the “bioactivity: induction” value (Seeds of Striga asiatica; listed as synthetically produced SL)?
Answer: Its value is “effective at germinating seeds of Striga asiatica”.

Question: What about the “impact on phenotype of strigolactone-deficient mutant” value [1] of the same compound?
Answer: The value was “visible impact on the phenotype of the mutant”.

Question: What about the “vase life of cut flowers” value (cut flowers; added to irrigation water, various concentrations, water-only approximately 4 days) of the same compound?
Answer: Its value is 6 to 7 days.

Question: And the vase life extension (cut flowers; versus water-only control)?
Answer: Its vase life extension is 50-60%.

Question: And the “germination triggering efficiency (appearance of haustoria)” value (Seeds of O. cumana)?
Answer: Its value is “Significant differences in germination triggering efficiency”.

Question: And the “appearance of seedlings under water limitation stress” value (Alfalfa [2])?
Answer: Its value is “treated seedlings appeared robust”.

Question: And the “increase of harvest grain yield over control plots” value ([3]; 2 gram per acre spray at VT)?
Answer: The value was 19%.

Question: What about the “average kernel mass (thousand kernel weight), higher than control plots” value ([3]; 2 gram per acre spray at VT, after harvest) of the same compound?
Answer: The value was 30%.

Question: And the harvest grain yield ([3]; 2 gram per acre spray at VT, calculated at 15% moisture, control plots 120)?
Answer: Its harvest grain yield is 143 bushels per acre.

Question: And the ear volume ([3]; 2 gram per acre spray at VT, measured at R3 stage, vs mock)?
Answer: The ear volume was “significantly higher volumes”.

Question: And the “kernel set at harvest” value ([3]; 2 gram per acre spray at VT, visual inspection, vs mock)?
Answer: The value was “more complete kernel set and few signs of kernel abortion”.

Question: And the “fraction of fertilized / unfertilized ears” value ([3]; 2 gram per acre spray at tasseling (VT), ear silk inspected at R2-R3 stage, vs mock)?
Answer: The value was “decreased the fraction of unfertilized ears while increasing the fraction of fertilized ears”.

Question: And the “symptoms of salinity stress (chlorosis, vigor)” value (Alfalfa [4])?
Answer: The value was “displayed significantly higher vigor”.

Question: And the “symptoms of salinity shock (wilting)” value (Tomato seedlings)?
Answer: Its value is “appeared unstressed”.

Question: What about the “symptoms of drought stress (wilting)” value (Wheat) of the same compound?
Answer: The value was “appeared vigourous”.

Question: What about the “Striga emergence and Striga-related stress in plots” value (Striga) of the same compound?
Answer: The value was “few signs of Striga-related stress and parasite emergence”.

Question: What about the “biomass of Striga per plot after harvest” value (Striga) of the same compound?
Answer: Its value is “significant reduction in the mass of Striga present”.

Question: What about the “count of emergent Striga per plot” value (Striga) of the same compound?
Answer: Its value is “few parasites in treated plots”.

Question: And the “increase of grain yields compared to untreated plots” value (Striga)?
Answer: Its value is 25%.

Question: What about the “fraction of seedlings scored unstressed / severely water stressed” value [5] of the same compound?
Answer: The value was “decreased the fraction of severely stressed seedlings while increasing the fraction of unstressed seedlings in a dose-dependent manner”.
